Results taken from patent US20230084927A1, “GLUCOSE UPTAKE INHIBITORS AND USES THEREOF” (METABOMED LTD., priority 2019, published 2023).

Assays:
SDH-WT cells = assay: Cellular / differential toxicity assay (CellTiter-Glo, 3 days); format: cell-based, murine; details: Mus musculus, 72 h, toxicity, SDH-WT cells, 3 days, CellTiter-Glo; read-out: EC50 (uM) SDH-WT
Description: (§1) Identification of compounds that target specifically SDH-deficient cells was done by screening a library of small-molecule by using a differential toxicity screen with SDHB-proficient vs. SDHB-deficient cells (the […] cells were described in Cardaci 2015).
(§2) Cells Used for the Differential Assays: SDH-WT; SDH-KO-HRAS
(§3) Cell Culture Conditions: • Medium: DMEM-F12 medium+1 mM Glutamine+3% FBS • Plates: 96 well plate—Black, clear flat bottom • Incubation time: 3 days • Compound concentration: 10 point dilution starting from 10 uM to 0.0065 uM or a lower range when needed. • Viability assay at the end of incubation: Celltiter-Glo (CTG) from Promega.
(§4) Protocol: • Day 1: Plate cells in 96 well plate together with the appropriate concentration of compound.
(§5) Incubate for 3 days at 37° C. in 5% CO2 tissue culture incubator. • Day 4: Check viability of cells by adding CTG reagent and read luminescence in plate reader
(§6) SDH-WT and SDH-KO cells were grown in DMEM F12 supplemented with 1 mM Glutamine+3% FBS were treated with different concentrations of the indicated compounds in FIG. 11. Cell viability was determined 72 hours later by CellTiter Glue reagent (Promega), the luminescence was measured with ClarioStar reader (BMG) and the EC50s were calculated by Prism.
as §6, with “compounds.” for “compounds in FIG. 11.”
(§7) The cells were grown in DMEM F12 supplemented with 1 mM Glutamine+3% FBS were treated with different concentrations of the indicated compounds. Cell viability was determined 72 hours later by CellTiter Glue reagent (Promega), the luminescence was measured with ClarioStar reader (BMG) and the EC50s were calculated by Prism. Murine SDHB-WT/KO, HRAS transformed isogenic pair (FIG. 12A); UOK269, Human Tumor-derived SDHB-deficient RCC in their WT counterpart with re-expression of SDHB (FIG. 12B); and ACHN, RCC cells, and their SDHB-KO (SDHB CRISPRed out) isogenic cells (FIG. 12C).

[1] = test system: SDH-KO-HRAS cells (SDHB-deficient); assay: as above; format: cell-based, murine; details: Mus musculus, 72 h, toxicity, SDH-KO cells, 3 days, CellTiter-Glo; read-out: EC50 (uM) SDH-KO-HTAS-C17
Description: as §1, §2, §3, §4, §5, §6
as §6, with “compounds.” for “compounds in FIG. 11.”
as §7

| Compound | EC50 (SDH-WT cells) | EC50 [1] |
| --- | --- | --- |
| COCCOCCOCCOCCOCCOC(=O)c1c2c(nc3sc4c(NCCc5ccc6[nH]cnc6c5)ncnc4c13)CC(C)(C)OC2 [Compound 163] | > 10 µM | 1 to 3 µM |
| COCCOCCOCCOCCOC(=O)c1c2c(nc3sc4c(NCCc5ccc6[nH]cnc6c5)ncnc4c13)CC(C)(C)OC2 [Compound 164] | 3 to 10 µM | < 1 µM |
| COCCOCCOCCOC(=O)c1c2c(nc3sc4c(NCCc5ccc6[nH]cnc6c5)ncnc4c13)CC(C)(C)OC2 [Compound 165, 2-(2-(2-Methoxyethoxy)ethoxy)ethyl 4-((2-(1H-benzo[d]imidazol-6-yl)ethyl)amino)-8,8-dimethyl-8,10-dihydro-7H-pyrano[3″,4″:5′,6′]pyrido[3′,2′:4,5]thieno[3,2-d]pyrimidine-11-carboxylate] | > 10 µM | 1 to 3 µM |
| CC1(C)Cc2nc3c(c(S(C)(=O)=O)c2CO1)-c1ncnc(NCCc2ccc4[nH]cnc4c2)c1S3(=O)=O [Compound 166] | 3 to 10 µM | 3 to 10 µM |
| CSc1c2c(nc3sc4c(NCCc5ccc6nc[nH]c6c5)ncnc4c13)CC(C)(C)OC2 [Compound 167] | < 1 µM | < 1 µM |
| CC(=O)OC1CCc2nc3sc4c(NCCc5ccc6[nH]cnc6c5)ncnc4c3cc2C1 (stereo not drawn) [Compound 168] | 1 to 3 µM | < 1 µM |
| OC1CCc2nc3sc4c(NCCc5ccc6[nH]cnc6c5)ncnc4c3cc2C1 (stereo not drawn) [Compound 169] | 1 to 3 µM | < 1 µM |
| CCOC(=O)c1c2c(nc3sc4c(NCCc5ccc6[nH]cnc6c5)ncnc4c13)CC(C)(C)OC2 [Compound 170, Ethyl 4-((2-(1H-benzo[d]imidazol-5-yl)ethyl)amino)-8,8-dimethyl-8,10-dihydro-7H-pyrano[3″,4″:5′,6′]pyrido[3′,2′:4,5]thieno[3,2-d]pyrimidine-11-carboxylate] | < 1 µM | < 1 µM |
| CC1(C)Cc2nc3sc4c(NCCc5ccc6[nH]cnc6c5)ncnc4c3c(C(=O)O)c2CO1 [Compound 171, 4-((2-(1H-Benzo[d]imidazol-6-yl)ethyl)amino)-8,8-dimethyl-8,10-dihydro-7H-pyrano[3″,4″:5′,6′]pyrido[3′,2′:4,5]thieno[3,2-d]pyrimidine-11-carboxylic Acid] | 3 to 10 µM | 3 to 10 µM |
| CC(CNc1ncnc2c1sc1nc3c(cc12)COC(C)(C)C3)c1ccc2c(c1)ncn2C (stereo not drawn) [Compound 172] | 3 to 10 µM | 3 to 10 µM |
| Cn1cnc2cc(CCNc3ncnc4c3sc3nc5c(cc34)COC(C)(C)C5)ccc21 [Compound 173] | 3 to 10 µM | < 1 µM |
| CC1(C)Cc2nc3sc4c(NCCc5ccc(O)c([N+](=O)[O-])c5)ncnc4c3cc2CO1 [Compound 174] | < 1 µM | 3 to 10 µM |
| CC1(C)Cc2nc3sc4c(NCCc5ccc6ocnc6c5)ncnc4c3cc2CO1 [Compound 175] | 3 to 10 µM | 1 to 3 µM |
| CC(=O)OCc1nc2cc(CCNc3ncnc4c3sc3nc5c(cc34)COC(C)(C)C5)ccc2[nH]1 [Compound 176] | 3 to 10 µM | < 1 µM |
| CC(O)c1nc2cc(CCNc3ncnc4c3sc3nc5c(cc34)COC(C)(C)C5)ccc2[nH]1 (stereo not drawn) [Compound 177] | 3 to 10 µM | 1 to 3 µM |
| CC(=O)c1nc2cc(CCNc3ncnc4c3sc3nc5c(cc34)COC(C)(C)C5)ccc2[nH]1 [Compound 178] | 3 to 10 µM | < 1 µM |
| CC1(C)Cc2nc3sc4c(NCCc5ccc6[nH]c(CO)nc6c5)ncnc4c3cc2CO1 [Compound 179] | 3 to 10 µM | < 1 µM |
| CNc1ccc(CCNc2ncnc3c2sc2nc4c(cc23)COC(C)(C)C4)cc1[N+](=O)[O-] [Compound 180] | 3 to 10 µM | < 1 µM |
| CNc1ccc(CCN(C)c2ncnc3c2sc2nc4c(cc23)COC(C)(C)C4)cc1[N+](=O)[O-] [Compound 181] | 3 to 10 µM | 3 to 10 µM |
| CC1(C)Cc2nc3sc4c(NCCc5ccc(NC(=O)C(F)(F)F)c([N+](=O)[O-])c5)ncnc4c3cc2CO1 [Compound 182] | 3 to 10 µM | 1 to 3 µM |
| CC(=O)OCC(=O)Cc1ccc(CCNc2ncnc3c2sc2nc4c(cc23)COC(C)(C)C4)cc1N [Compound 183] | 3 to 10 µM | < 1 µM |
| CC(=O)OCC(=O)Cc1ccc(CCNc2ncnc3c2sc2nc4c(cc23)COC(C)(C)C4)cc1[N+](=O)[O-] [Compound 184] | 3 to 10 µM | 3 to 10 µM |
| CC(=O)OC(C)c1nc2cc(CCNc3ncnc4c3sc3nc5c(cc34)COC(C)(C)C5)ccc2[nH]1 (stereo not drawn) [Compound 185] | 3 to 10 µM | 1 to 3 µM |
| CC(=O)OC(C)C(=O)Nc1ccc(CCNc2ncnc3c2sc2nc4c(cc23)COC(C)(C)C4)cc1N (stereo not drawn) [Compound 186] | 3 to 10 µM | 1 to 3 µM |

| Compound | EC50 (SDH-WT cells) | EC50 [1] |
| --- | --- | --- |
| CC(=O)OC(C)C(=O)Nc1ccc(CCNc2ncnc3c2sc2nc4c(cc23)COC(C)(C)C4)cc1[N+](=O)[O-] (stereo not drawn) [Compound 187] | 1 to 3 µM | 3 to 10 µM |
| CC(C)c1nc2cc(CCNc3ncnc4c3sc3nc5c(cc34)COC(C)(C)C5)ccc2[nH]1 [Compound 188] | 1 to 3 µM | 3 to 10 µM |
| CC1(C)Cc2nc3sc4c(NCCc5ccc6[nH]c(N)nc6c5)ncnc4c3cc2CO1 [Compound 189] | 1 to 3 µM | < 1 µM |
| CC1(C)Cc2nc3sc4c(NCCc5ccc6[nH]c(-c7ccccc7)nc6c5)ncnc4c3cc2CO1 [Compound 190] | < 1 µM | 1 to 3 µM |
| CC(=O)CNc1ccc(CCNc2ncnc3c2sc2nc4c(cc23)COC(C)(C)C4)cc1F [Compound 191] | 3 to 10 µM | 1 to 3 µM |
| CC1(C)Cc2nc3sc4c(NCCc5ccc(NCc6ccccc6)c(N)c5)ncnc4c3cc2CO1 [Compound 192] | < 1 µM | < 1 µM |
| CC1(C)Cc2nc3sc4c(NCCc5ccc(N)c(N)c5)ncnc4c3cc2CO1 [Compound 193] | 1 to 3 µM | < 1 µM |
| Cc1nc2cc(CCNc3ncnc4c3sc3nc5c(cc34)COC(C)(C)C5)ccc2[nH]1 [Compound 194] | < 1 µM | < 1 µM |
| COc1nc2cc(CCNc3ncnc4c3sc3nc5c(cc34)COC(C)(C)C5)ccc2[nH]1 [Compound 195] | < 1 µM | < 1 µM |
| CC1(C)Cc2nc3sc4c(NCCc5ccc6[nH]c(=O)[nH]c6c5)ncnc4c3cc2CO1 [Compound 196] | 3 to 10 µM | < 1 µM |
| CC1(C)Cc2nc3sc4c(NCCc5ccc(NC(=O)c6ccccc6)c([N+](=O)[O-])c5)ncnc4c3cc2CO1 [Compound 197] | 3 to 10 µM | 1 to 3 µM |
| CC(=O)CN(C(=O)C(F)(F)F)c1ccc(CCNc2ncnc3c2sc2nc4c(cc23)COC(C)(C)C4)cc1F [Compound 198] | 3 to 10 µM | < 1 µM |
| CC(C)C(=O)Nc1ccc(CCNc2ncnc3c2sc2nc4c(cc23)COC(C)(C)C4)cc1[N+](=O)[O-] [Compound 199] | 1 to 3 µM | 1 to 3 µM |
| CC1(C)Cc2nc3sc4c(NCCc5ccc(NC(=O)C(F)(F)F)c(F)c5)ncnc4c3cc2CO1 [Compound 200] | 3 to 10 µM | 1 to 3 µM |
| CC1(C)Cc2nc3sc4c(NCCc5ccc6[nH]nnc6c5)ncnc4c3cc2CO1 [Compound 201] | 1 to 3 µM | < 1 µM |
| CC1(C)Cc2nc3sc4c(NCCc5ccc6occc6c5)ncnc4c3cc2CO1 [Compound 202] | 3 to 10 µM | < 1 µM |
| CC1(C)Cc2nc3sc4c(NCCc5ccc(N)c(F)c5)ncnc4c3cc2CO1 [Compound 203] | > 10 µM | < 1 µM |
| CC(=O)Nc1ccc(CCNc2ncnc3c2sc2nc4c(cc23)COC(C)(C)C4)cc1F [Compound 204] | > 10 µM | 1 to 3 µM |
| CC1(C)Cc2nc3sc4c(NCCc5ccc(N)c([N+](=O)[O-])c5)ncnc4c3cc2CO1 [Compound 205] | 3 to 10 µM | < 1 µM |
| CC1(C)Cc2nc3sc4c(NCCc5ccc6[nH]cnc6c5)ncnc4c3c(-c3ccccc3)c2CO1 [Compound 206] | < 1 µM | < 1 µM |
| COc1ccc(CCNC(=O)c2sc3nc4c(cc3c2NC(=O)C(F)(F)F)COC(C)(C)C4)cc1F [Compound 207] | 1 to 3 µM | 3 to 10 µM |
| COc1ccc(CCNC(=O)c2sc3nc4c(cc3c2N)COC(C)(C)C4)cc1F [Compound 208] | > 10 µM | > 10 µM |
| COc1ccc(CCNc2ncnc3c2sc2nc4c(cc23)CC(C(=O)O)CC4)cc1F (stereo not drawn) [Compound 209] | > 10 µM | > 10 µM |
| CC1(C)Cc2nc3sc4c(NCCc5ccc6[nH]cnc6c5)ncnc4c3c(C(=O)OCCCCCCCC(=O)O)c2CO1 [Compound 210] | < 1 µM | 3 to 10 µM |
